target: Bcl-xL (GST-Bcl-xL) (Homo sapiens, UniProt Q07817); test: TR-FRET binding assay, competition with F-Bak for the Bcl-xL binding site; settings: values listed in the order of Table 1, read-out: TR-FRET assay results (Ki), Bcl-xL
Method: The measurement of competition of compounds of the invention with F-Bak for a Bcl-2 family protein (Bcl-xL) binding site using a Time Resolved Fluorescence Resonance Energy Transfer (TR-FRET) binding assay:
Test compounds were serially diluted in DMSO starting at 50 μM (2× starting concentration; 10% DMSO) and 10 μt transferred into a 384-well plate.
The samples are then mixed on a shaker for 1 minute then incubated for an additional 2 hours at room temperature. For each assay plate, a probe/antibody and protein/antibody/probe mixture were included as a negative and a positive control, respectively. Fluorescence was measured on the Envision (Perkin Elmer) using a 340/35 nm excitation filter and 520/525 (F-Bak) and 495/510 nm (Tb-labeled anti-his antibody) emission filters. Dissociation constants (Ki) were determined using Wang's equation (see, Wang, Z. X. An exact mathematical expression for describing competitive binding of two different ligands to a protein molecule. FEBS Lett. 1995 360:111-114). The TR-FRET assay can be performed in the presence of varying concentrations of human serum (HS) or fetal bovine serum (FBS).

Bcl-xL (GST-Bcl-xL), sequence (Q07817 whole entry, species assumed): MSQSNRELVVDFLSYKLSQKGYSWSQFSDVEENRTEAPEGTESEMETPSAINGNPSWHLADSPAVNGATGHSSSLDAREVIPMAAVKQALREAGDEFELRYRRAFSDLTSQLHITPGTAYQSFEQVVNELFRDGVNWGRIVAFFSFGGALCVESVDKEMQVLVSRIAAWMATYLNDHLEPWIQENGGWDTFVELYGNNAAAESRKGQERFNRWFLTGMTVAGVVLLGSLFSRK

SMILES	Ki
O=C(Nc1nc2ccccc2s1)c1cccc2c1CN(c1nc(C(=O)O)c(CCCOc3ccc(-c4cn[nH]c4)cc3)s1)CC2 [Example 73, 5-(3-(4-(1H-pyrazol-4-yl)phenoxy)propyl)-2-(8-(benzo[d]thiazol-2-ylcarbamoyl)-3,4-dihydroisoquinolin-2(1H)-yl)thiazole-4-carboxylic acid]	0.08 nM
N[C@H]1[C@@H]2CCC[C@H]1[C@@H](c1ccc(OCCCc3sc(N4CCc5cccc(C(=O)Nc6nc7ccccc7s6)c5C4)nc3C(=O)O)cc1)CC2 [Example 80, 5-(3-(4-((1S,2S,5R,9S)-9-aminobicyclo[3.3.1]nonan-2-yl)phenoxy)propyl)-2-(8-(benzo[d]thiazol-2-ylcarbamoyl)-3,4-dihydroisoquinolin-2(1H)-yl)thiazole-4-carboxylic acid]	0.5 nM
CN(C)CCCc1ccc(OCCCc2sc(N3CCc4cccc(C(=O)Nc5nc6ccccc6s5)c4C3)nc2C(=O)O)cc1 [Example 107, 2-(8-(benzo[d]thiazol-2-ylcarbamoyl)-3,4-dihydroisoquinolin-2(1H)-yl)-5-(3-(4-(3-(dimethylamino)propyl)phenoxy)propyl)thiazole-4-carboxylic acid]	0.15 nM
O=C(Nc1nc2ccccc2s1)c1cccc2c1CN(c1nc(C(=O)O)c(CCCOc3ccc(-c4ncnc5c(Br)csc45)cc3)s1)CC2 [Example 65]	0.07 nM
CN1CCN(Cc2ccc(OCCCc3sc(N4CCc5cccc(C(=O)Nc6nc7ccccc7s6)c5C4)nc3C(=O)O)cc2)CC1 [Example 89, 2-[8-(Benzothiazol-2-ylcarbamoyl)-3,4-dihydro-1H-isoquinolin-2-yl]-5-{3-[4-(4-methyl-piperazin-1-ylmethyl)-phenoxy]-propyl}-thiazole-4-carboxylic acid]	0.1 nM
N#Cc1c(-c2cccc(OCCCc3sc(N4CCc5cccc(C(=O)Nc6nc7ccccc7s6)c5C4)nc3C(=O)O)c2)n[nH]c1N [Example 39, 5-(3-(3-(5-amino-4-cyano-1H-pyrazol-3-yl)phenoxy)propyl)-2-(8-(benzo[d]thiazol-2-ylcarbamoyl)-3,4-dihydroisoquinolin-2(1H)-yl)thiazole-4-carboxylic acid]	0.2 nM
N#Cc1c(-c2ccc(OCCCc3sc(N4CCc5cccc(C(=O)Nc6nc7ccccc7s6)c5C4)nc3C(=O)O)cc2)csc1N [Example 47, 5-{3-[4-(5-Amino-4-cyano-thiophen-3-yl)-phenoxy]-propyl}-2-[8-(benzothiazol-2-ylcarbamoyl)-3,4-dihydro-1H-isoquinolin-2-yl]-thiazole-4-carboxylic acid]	0.1 nM
O=C(Nc1nc2ccccc2s1)c1cccc2c1CN(c1nc(C(=O)O)c(CCc3ccc4cc(OCCCN5CCOCC5)ccc4c3)s1)CC2 [Example 111, 2-(8-(benzo[d]thiazol-2-ylcarbamoyl)-3,4-dihydroisoquinolin-2(1H)-yl)-5-(2-(6-(3-morpholinopropoxy)naphthalen-2-yl)ethyl)thiazole-4-carboxylic acid]	0.02 nM
CN1CCN(c2ccc(OCCCc3ccc(N4CCc5cccc(C(=O)Nc6nc7ccccc7s6)c5C4)nc3C(=O)O)c(F)c2)CC1 [Example 101, 6-(8-(benzo[d]thiazol-2-ylcarbamoyl)-3,4-dihydroisoquinolin-2(1H)-yl)-3-(3-(2-fluoro-4-(4-methylpiperazin-1-yl)phenoxy)propyl)picolinic acid]	0.7 nM
O=C(Nc1nc2ccccc2s1)c1cccc2c1CN(c1ccc(CCCCOc3ccccc3)c(C(=O)O)n1)CC2 [Compound 131, 6-(8-(benzo[d]thiazol-2-ylcarbamoyl)-3,4-dihydroisoquinolin-2(1H)-yl)-3-(4-phenoxybutyl)picolinic acid]	18.9 nM
O=C(Nc1nc2ccccc2s1)c1cccc2c1CN(c1nc(C(=O)O)c(CCCCOc3ccc(-n4ncc5cncnc54)cc3)s1)CC2 [Example 43, 5-(4-(4-(1H-pyrazolo[3,4-d]pyrimidin-1-yl)phenoxy)butyl)-2-(8-(benzo[d]thiazol-2-ylcarbamoyl)-3,4-dihydroisoquinolin-2(1H)-yl)thiazole-4-carboxylic acid]	5 nM
O=C(Nc1nc2ccccc2s1)c1cccc2c1CN(c1nc(C(=O)O)c(CCCOc3ccc(C4=CSC5=NCCN45)cc3)s1)CC2 [Example 53, 2-(8-(benzo[d]thiazol-2-ylcarbamoyl)-3,4-dihydroisoquinolin-2(1H)-yl)-5-(3-(4-(5,6-dihydroimidazo[2,1-b]thiazol-3-yl)phenoxy)propyl)thiazole-4-carboxylic acid]	0.05 nM
O=C(Nc1nc2ccccc2s1)c1cccc2c1CN(c1nc(C(=O)O)c(CCCOc3ccc(N4CCOCC4)cc3)s1)CC2 [Example 59, 2-[8-(Benzothiazol-2-ylcarbamoyl)-3,4-dihydro-1H-isoquinolin-2-yl]-5-[3-(4-morpholin-4-yl-phenoxy)-propyl]-thiazole-4-carboxylic acid]	0.3 nM
CN(C)CC#Cc1ccc(OCCCc2sc(N3CCc4cccc(C(=O)Nc5nc6ccccc6s5)c4C3)nc2C(=O)NS(=O)(=O)C(F)F)c(F)c1 [Compound 147, 2-(8-(benzo[d]thiazol-2-ylcarbamoyl)-3,4-dihydroisoquinolin-2(1H)-yl)-N-(difluoromethylsulfonyl)-5-(3-(4-(3-(dimethylamino)prop-1-ynyl)-2-fluorophenoxy)propyl)thiazole-4-carboxamide]	> 660 nM
N#Cc1cscc1-c1ccc(O)c(Cc2sc(N3CCc4cccc(C(=O)Nc5nc6ccccc6s5)c4C3)nc2C(=O)O)c1 [Example 60, 2-[8-(Benzothiazol-2-ylcarbamoyl)-3,4-dihydro-1H-isoquinolin-2-yl]-5-[5-(4-cyano-thiophen-3-yl)-2-hydroxy-benzyl]-thiazole-4-carboxylic acid]	176 nM
O=C(Nc1nc2ccccc2s1)c1cccc2c1CN(c1nc(C(=O)O)c(CCCOc3cccc(-n4ncc5cncnc54)c3)s1)CC2 [Example 33]	0.3 nM
O=C(Nc1nc2ccccc2s1)c1cccc2c1CN(c1nc(C(=O)O)c(CCOCc3ccccc3)s1)CC2 [Compound 134, 2-(8-(benzo[d]thiazol-2-ylcarbamoyl)-3,4-dihydroisoquinolin-2(1H)-yl)-5-(2-(benzyloxy)ethyl)thiazole-4-carboxylic acid]	0.6 nM
O=C(Nc1nc2ccccc2s1)c1cccc2c1CN(c1nc(C(=O)O)c(CCCOc3ccc(-n4cncn4)cc3)s1)CC2 [Example 67, 5-(3-(4-(1H-1,2,4-triazol-1-yl)phenoxy)propyl)-2-(8-(benzo[d]thiazol-2-ylcarbamoyl)-3,4-dihydroisoquinolin-2(1H)-yl)thiazole-4-carboxylic acid]	0.05 nM
CC(C)Nc1ncnc2c1cnn2-c1ccc(OCCCc2sc(N3CCc4cccc(C(=O)Nc5nc6ccccc6s5)c4C3)nc2C(=O)O)cc1 [Example 44, 2-(8-(benzo[d]thiazol-2-ylcarbamoyl)-3,4-dihydroisoquinolin-2(1H)-yl)-5-(3-(4-(4-(isopropylamino)-1H-pyrazolo[3,4-d]pyrimidin-1-yl)phenoxy)propyl)thiazole-4-carboxylic acid]	0.07 nM
CC(=O)N1CCN(c2ccc(OCCCc3sc(N4CCc5cccc(C(=O)Nc6nc7ccccc7s6)c5C4)nc3C(=O)O)cc2)CC1 [Example 61, 5-{3-[4-(4-Acetyl-piperazin-1-yl)-phenoxy]-propyl}-2-[8-(benzothiazol-2-ylcarbamoyl)-3,4-dihydro-1H-isoquinolin-2-yl]-thiazole-4-carboxylic acid]	0.3 nM
N#Cc1c(-c2ccc(OCC#Cc3sc(N4CCc5cccc(C(=O)Nc6nc7ccccc7s6)c5C4)nc3C(=O)O)cc2)n[nH]c1N [Example 40, 5-(3-(4-(5-amino-4-cyano-1H-pyrazol-3-yl)phenoxy)prop-1-ynyl)-2-(8-(benzo[d]thiazol-2-ylcarbamoyl)-3,4-dihydroisoquinolin-2(1H)-yl)thiazole-4-carboxylic acid]	0.4 nM
O=C(Nc1nc2ccccc2s1)c1cccc2c1CN(c1nc(C(=O)O)c(CCCCn3ccnc3)s1)CC2 [Example 72, 5-(4-(1H-imidazol-1-yl)butyl)-2-(8-(benzo[d]thiazol-2-ylcarbamoyl)-3,4-dihydroisoquinolin-2(1H)-yl)thiazole-4-carboxylic acid]	3 nM
CN(C)CC#Cc1ccc(OCCCc2sc(N3CCc4cccc(C(=O)Nc5nc6ccccc6s5)c4C3)nc2C(=O)NS(C)(=O)=O)c(F)c1 [Compound 142, 2-(8-(benzo[d]thiazol-2-ylcarbamoyl)-3,4-dihydroisoquinolin-2(1H)-yl)-5-(3-(4-(3-(dimethylamino)prop-1-ynyl)-2-fluorophenoxy)propyl)-N-(methylsulfonyl) thiazole-4-carboxamide]	0.088 nM
Cn1cnnc1-c1ccc(OCCCc2sc(N3CCc4cccc(C(=O)Nc5nc6ccccc6s5)c4C3)nc2C(=O)O)cc1 [Example 68, 2-(8-(benzo[d]thiazol-2-ylcarbamoyl)-3,4-dihydroisoquinolin-2(1H)-yl)-5-(3-(4-(4-methyl-4H-1,2,4-triazol-3-yl)phenoxy)propyl)thiazole-4-carboxylic acid]	0.2 nM

same assay, conditions: with 1% human serum (HS)

SMILES	Ki
CN(C)CC#Cc1ccc(OCCCc2sc(N3CCc4cccc(C(=O)Nc5nc6ccccc6s5)c4C3)nc2C(=O)O)cn1 [Example 57, 2-(8-(benzo[d]thiazol-2-ylcarbamoyl)-3,4-dihydroisoquinolin-2(1H)-yl)-5-(3-(6-(3-(dimethylamino)prop-1-ynyl)pyridin-3-yloxy)propyl)thiazole-4-carboxylic acid]	0.07 nM

Source: patent US8232273B2, “Heterocyclic compounds and methods of use” (Genentech, Inc., priority 2008, dated 2012)
